Holding throughout (assay type): functional
Assay [1] concerns Staphylococcus epidermidis. Put plainly: Minimum inhibitory concentration (MIC) preventing growth of Staphylococcus epidermidis.
The subject of a further assay is Klebsiella pneumoniae. Put plainly: Minimum inhibitory concentration (MIC)preventing growth of Klebsiella pneumoniae.
In the next assay the test system is Bacillus subtilis. Put plainly: Minimum inhibitory concentration (MIC) preventing growth of Bacillus subtilis.
In a further assay the test system is Proteus vulgaris. As to the kind of experiment: Minimum inhibitory concentration (MIC) preventing growth of Proteus vulgaris.
A further assay concerns Enterobacter cloacae. As to the kind of experiment: Minimum inhibitory concentration (MIC)preventing growth of Enterobacter cloacae.
In a further assay the test system is Staphylococcus aureus. Put plainly: Minimum inhibitory concentration (MIC) preventing growth of […].
Another assay deals with Bacillus cereus. As to the kind of experiment: Minimum inhibitory concentration (MIC) preventing growth of Bacillus cereus.
Another assay deals with Pseudomonas aeruginosa. As to the kind of experiment: Minimum inhibitory concentration (MIC)preventing growth of Pseudomonas aeruginosa.
The test system of a further assay is Morganella morganii. Put plainly: Minimum inhibitory concentration (MIC) preventing growth of Morganella morganii.
For another assay, the system named is Enterococcus faecalis. As to the kind of experiment: Minimum inhibitory concentration (MIC) preventing growth of Streptococcus faecalis ATCC 10541.
The next assay concerns Escherichia coli. As to the kind of experiment: Minimum inhibitory concentration (MIC)preventing growth of Escherichia coli.

≈ marks a conversion by molar mass, not a printed value.

This note sets out measurements from ChEMBL document CHEMBL1126625, “7-Azetidinylquinolones as antibacterial agents. Synthesis and structure-activity relationships” (J Med Chem, 1993).

A word on the MIC: it is the lowest concentration that inhibits growth of the organism. Low readings indicate a more susceptible organism, high ones a less susceptible organism. For `NC1CN(c2cc3c(cc2F)c(=O)c2c(=O)[nH]sc2n3C2CC2)C1`, the MIC in assay [1] was 0.06 µg/mL (≈ 0.173 µM); against Klebsiella pneumoniae, 0.03 µg/mL (≈ 0.0866 µM); against Bacillus subtilis it was 0.03 µg/mL (≈ 0.0866 µM); in the assay with Proteus vulgaris it was 0.12 µg/mL (≈ 0.346 µM); in the assay on Enterobacter cloacae it was 0.03 µg/mL (≈ 0.0866 µM); against Staphylococcus aureus, 0.06 µg/mL (≈ 0.173 µM). Moreover, the MIC with Bacillus cereus turned out to be 0.06 µg/mL (≈ 0.173 µM); in the assay on Pseudomonas aeruginosa, 0.25 µg/mL (≈ 0.722 µM); with Morganella morganii it was 0.015 µg/mL (≈ 0.0433 µM); in the assay on Enterococcus faecalis it was 0.12 µg/mL (≈ 0.346 µM); in the assay on Escherichia coli, 0.007 µg/mL (≈ 0.0202 µM).
For the molecule `N#CC1CN(c2c(F)cc3c(=O)c(C(=O)O)cn(C4CC4)c3c2F)C1`, the minimal inhibitory concentration (MIC) in [1] turned out to be 0.5 µg/mL (≈ 1.45 µM); against Klebsiella pneumoniae, 0.5 µg/mL (≈ 1.45 µM); in the assay on Bacillus subtilis it was 0.06 µg/mL (≈ 0.174 µM); in the assay on Proteus vulgaris, 1 µg/mL (≈ 2.9 µM); in the assay on Enterobacter cloacae, 1 µg/mL (≈ 2.9 µM); with Staphylococcus aureus, 1 µg/mL (≈ 2.9 µM). Also, the MIC came out at 0.5 µg/mL (≈ 1.45 µM) in the assay on Bacillus cereus; 8 µg/mL (≈ 23.2 µM) against Pseudomonas aeruginosa; 1 µg/mL (≈ 2.9 µM) in the assay on Morganella morganii; 4 µg/mL (≈ 11.6 µM) in the assay on Enterococcus faecalis; 1 µg/mL (≈ 2.9 µM) against Escherichia coli.
`Nc1c(F)c(N2CC(O)C2)c(F)c2c1c(=O)c(C(=O)O)cn2C1CC1`: the MIC in assay [1] turned out to be 0.06 µg/mL (≈ 0.171 µM); in the assay on Klebsiella pneumoniae, 0.015 µg/mL (≈ 0.0427 µM); with Bacillus subtilis, 0.015 µg/mL (≈ 0.0427 µM); in the assay on Proteus vulgaris, 0.12 µg/mL (≈ 0.342 µM); against Enterobacter cloacae, 0.12 µg/mL (≈ 0.342 µM); against Staphylococcus aureus, 0.06 µg/mL (≈ 0.171 µM). Further, the MIC is 0.015 µg/mL (≈ 0.0427 µM) in the assay on Bacillus cereus; 2 µg/mL (≈ 5.69 µM) in the assay on Pseudomonas aeruginosa; 0.12 µg/mL (≈ 0.342 µM) against Morganella morganii; 2 µg/mL (≈ 5.69 µM) against Enterococcus faecalis; 0.06 µg/mL (≈ 0.171 µM) in the assay on Escherichia coli.
For `CCNC1CN(c2cc3c(cc2F)c(=O)c2c(=O)[nH]sc2n3C2CC2)C1`, the MIC worked out at 0.06 µg/mL (≈ 0.16 µM) in [1]; 0.03 µg/mL (≈ 0.0801 µM) with Klebsiella pneumoniae; 0.03 µg/mL (≈ 0.0801 µM) with Bacillus subtilis; 0.12 µg/mL (≈ 0.32 µM) against Proteus vulgaris; 0.03 µg/mL (≈ 0.0801 µM) with Enterobacter cloacae; 0.06 µg/mL (≈ 0.16 µM) in the assay on Staphylococcus aureus. In addition, the MIC is 0.12 µg/mL (≈ 0.32 µM) in the assay on Bacillus cereus; 0.5 µg/mL (≈ 1.34 µM) against Pseudomonas aeruginosa; 0.06 µg/mL (≈ 0.16 µM) in the assay with Morganella morganii; 0.5 µg/mL (≈ 1.34 µM) against Enterococcus faecalis; 0.03 µg/mL (≈ 0.0801 µM) against Escherichia coli.
As for `Nc1c(F)c(N2CC(N)C2)c(F)c2c1c(=O)c(C(=O)O)cn2C1CC1`, the minimal inhibitory concentration (MIC) in assay [1] was determined as 0.12 µg/mL (≈ 0.343 µM); in the assay with Klebsiella pneumoniae, 0.015 µg/mL (≈ 0.0428 µM); in the assay with Bacillus subtilis, 0.015 µg/mL (≈ 0.0428 µM); against Proteus vulgaris it was 0.06 µg/mL (≈ 0.171 µM); in the assay with Enterobacter cloacae, 0.015 µg/mL (≈ 0.0428 µM); against Staphylococcus aureus, 0.06 µg/mL (≈ 0.171 µM). Moreover, the minimum inhibitory concentration (MIC) with Bacillus cereus worked out at 0.015 µg/mL (≈ 0.0428 µM); against Pseudomonas aeruginosa, 0.25 µg/mL (≈ 0.714 µM); with Morganella morganii, 0.015 µg/mL (≈ 0.0428 µM); against Enterococcus faecalis it was 0.25 µg/mL (≈ 0.714 µM); in the assay with Escherichia coli, 0.015 µg/mL (≈ 0.0428 µM).
On to `CC1(N)CN(c2c(F)cc3c(=O)c(C(=O)O)cn(CCF)c3c2F)C1`, for which the MIC amounted to 1 µg/mL (≈ 2.81 µM) in [1]; 1 µg/mL (≈ 2.81 µM) in the assay with Klebsiella pneumoniae; 0.25 µg/mL (≈ 0.704 µM) against Bacillus subtilis; 1 µg/mL (≈ 2.81 µM) in the assay with Proteus vulgaris; 1 µg/mL (≈ 2.81 µM) with Enterobacter cloacae; 1 µg/mL (≈ 2.81 µM) in the assay on Staphylococcus aureus. The MIC against Bacillus cereus was 1 µg/mL (≈ 2.81 µM); against Pseudomonas aeruginosa, 4 µg/mL (≈ 11.3 µM); with Morganella morganii, 1 µg/mL (≈ 2.81 µM); with Enterococcus faecalis, 4 µg/mL (≈ 11.3 µM); against Escherichia coli it was 1 µg/mL (≈ 2.81 µM).
In the case of `O=C(O)c1cn(C2CC2)c2c(F)c(N3CCC3)c(F)cc2c1=O`, the MIC in [1] came to 0.12 µg/mL (≈ 0.375 µM); in the assay with Klebsiella pneumoniae, 0.25 µg/mL (≈ 0.781 µM); with Bacillus subtilis it was 0.015 µg/mL (≈ 0.0468 µM); against Proteus vulgaris, 0.25 µg/mL (≈ 0.781 µM); in the assay with Enterobacter cloacae it was 0.25 µg/mL (≈ 0.781 µM); in the assay on Staphylococcus aureus, 0.25 µg/mL (≈ 0.781 µM). Also, the MIC was 0.25 µg/mL (≈ 0.781 µM) against Bacillus cereus; 2 µg/mL (≈ 6.24 µM) in the assay with Pseudomonas aeruginosa; 0.25 µg/mL (≈ 0.781 µM) against Morganella morganii; 1 µg/mL (≈ 3.12 µM) in the assay with Enterococcus faecalis; 0.25 µg/mL (≈ 0.781 µM) in the assay on Escherichia coli.
Consider `CS(=O)(=O)OC1CN(c2c(F)cc3c(=O)c(C(=O)O)cn(C4CC4)c3c2F)C1`, for which the MIC in assay [1] is 0.06 µg/mL (≈ 0.145 µM); with Klebsiella pneumoniae it was 0.015 µg/mL (≈ 0.0362 µM); with Bacillus subtilis it was 0.015 µg/mL (≈ 0.0362 µM); in the assay with Proteus vulgaris it was 0.25 µg/mL (≈ 0.603 µM); against Enterobacter cloacae it was 0.5 µg/mL (≈ 1.21 µM); with Staphylococcus aureus, 0.06 µg/mL (≈ 0.145 µM). Also, the MIC against Bacillus cereus was found to be 0.12 µg/mL (≈ 0.29 µM); with Pseudomonas aeruginosa, 8 µg/mL (≈ 19.3 µM); in the assay on Morganella morganii, 0.5 µg/mL (≈ 1.21 µM); in the assay with Enterococcus faecalis, 0.5 µg/mL (≈ 1.21 µM); against Escherichia coli, 0.25 µg/mL (≈ 0.603 µM).
As to `O=C(O)c1cn(C2CC2)c2c(F)c(N3CC(N4CCCC4)C3)c(F)cc2c1=O`, the MIC in assay [1] amounted to 0.12 µg/mL (≈ 0.308 µM); in the assay with Klebsiella pneumoniae it was 0.12 µg/mL (≈ 0.308 µM); with Bacillus subtilis, 0.06 µg/mL (≈ 0.154 µM); against Proteus vulgaris, 0.25 µg/mL (≈ 0.642 µM); with Enterobacter cloacae, 0.06 µg/mL (≈ 0.154 µM); in the assay on Staphylococcus aureus, 0.12 µg/mL (≈ 0.308 µM). Besides, the MIC with Bacillus cereus is 0.12 µg/mL (≈ 0.308 µM); in the assay with Pseudomonas aeruginosa, 2 µg/mL (≈ 5.14 µM); in the assay on Morganella morganii it was 0.12 µg/mL (≈ 0.308 µM); with Enterococcus faecalis, 0.5 µg/mL (≈ 1.28 µM); in the assay with Escherichia coli, 0.06 µg/mL (≈ 0.154 µM).
As for `CC1(CN)CN(c2cc3c(cc2F)c(=O)c(C(=O)O)cn3C2CC2)C1`, the MIC was found to be 0.25 µg/mL (≈ 0.724 µM) in [1]; 0.25 µg/mL (≈ 0.724 µM) with Klebsiella pneumoniae; 0.06 µg/mL (≈ 0.174 µM) in the assay with Bacillus subtilis; 0.12 µg/mL (≈ 0.347 µM) against Proteus vulgaris; 0.25 µg/mL (≈ 0.724 µM) with Enterobacter cloacae; 0.25 µg/mL (≈ 0.724 µM) with Staphylococcus aureus. In addition, the minimum inhibitory concentration (MIC) in the assay with Bacillus cereus was 0.12 µg/mL (≈ 0.347 µM); against Pseudomonas aeruginosa, 1 µg/mL (≈ 2.9 µM); in the assay on Morganella morganii, 0.12 µg/mL (≈ 0.347 µM); with Enterococcus faecalis, 0.5 µg/mL (≈ 1.45 µM); in the assay with Escherichia coli, 0.12 µg/mL (≈ 0.347 µM).
